From the NIST ThermoML archive (doi:10.1021/je049612f)

Conditions: Gas, Vibrating wire viscometry

FS(F)(F)(F)(F)F [sulfur hexafluoride]
Conditions	viscosity [mPa·s]
350 K, 269.03 kPa	0.0176
350 K, 295.24 kPa	0.0176
350 K, 332.44 kPa	0.01761
350 K, 363.13 kPa	0.01762
350 K, 390.5 kPa	0.01763
350 K, 418.5 kPa	0.01765
350 K, 450.38 kPa	0.01765
350 K, 485.3 kPa	0.01766
350 K, 522.75 kPa	0.01767
350 K, 552.81 kPa	0.01768
350 K, 579.7 kPa	0.01769
350 K, 619.51 kPa	0.01771
350 K, 654.26 kPa	0.01772
350 K, 701.64 kPa	0.01775
350 K, 739.48 kPa	0.01775
350 K, 779.89 kPa	0.01777
350 K, 809.98 kPa	0.01779
350 K, 855.04 kPa	0.0178
350 K, 900.26 kPa	0.01782
350 K, 954.25 kPa	0.01784
350 K, 997.88 kPa	0.01787
350 K, 1051.5 kPa	0.0179
350 K, 1146.2 kPa	0.01795
350 K, 1196.5 kPa	0.01798
350 K, 1265.4 kPa	0.01803
350 K, 1341.2 kPa	0.01807
350 K, 1392.7 kPa	0.01811
350 K, 1473.1 kPa	0.01816
350 K, 1546.1 kPa	0.01821
350 K, 1621.8 kPa	0.01827
350 K, 1656.3 kPa	0.0183
350 K, 1713.2 kPa	0.01835
350 K, 1840 kPa	0.01844
350 K, 1888.3 kPa	0.01849
350 K, 1964.6 kPa	0.01856
350 K, 2005.9 kPa	0.01861
350 K, 2043.2 kPa	0.01864
350 K, 2108.6 kPa	0.01871
350 K, 2309.3 kPa	0.01893
350 K, 2394 kPa	0.01903
350 K, 2449.2 kPa	0.01908
350 K, 2505.1 kPa	0.01916
350 K, 2608.1 kPa	0.01929
350 K, 2657.7 kPa	0.01936
350 K, 2798.4 kPa	0.01957
350 K, 2900.4 kPa	0.01971
350 K, 2978.2 kPa	0.01986
350 K, 3047.1 kPa	0.01996
350 K, 3125.3 kPa	0.0201
350 K, 3224.5 kPa	0.02028
350 K, 3319.6 kPa	0.02047
350 K, 3405.3 kPa	0.02064
350 K, 3504.4 kPa	0.02085
350 K, 3655.4 kPa	0.02123
350 K, 3748 kPa	0.02146
350 K, 3869.5 kPa	0.02179
350 K, 3987.5 kPa	0.02211
350 K, 4143 kPa	0.02261
350 K, 4307.3 kPa	0.02322
350 K, 4473.2 kPa	0.02386
350 K, 4598.1 kPa	0.02443
350 K, 4732.9 kPa	0.02508
350 K, 4848.3 kPa	0.02571
350 K, 4964.3 kPa	0.02637
350 K, 5096.1 kPa	0.02724
350 K, 5208.7 kPa	0.02806
350 K, 5327.4 kPa	0.02902
350 K, 5431.3 kPa	0.02995
350 K, 5524.2 kPa	0.03078
350 K, 5638.8 kPa	0.03189
350 K, 5741 kPa	0.03299
350 K, 5850 kPa	0.03434
350 K, 5956.2 kPa	0.03561
350 K, 6067.6 kPa	0.03706
350 K, 6177.6 kPa	0.03857
350 K, 6280.8 kPa	0.03995
350 K, 6385.1 kPa	0.04139
350 K, 6510.8 kPa	0.04319
350 K, 6635.4 kPa	0.04497
350 K, 6769.6 kPa	0.04684
350 K, 6918.8 kPa	0.04891
350 K, 7076.5 kPa	0.05108
350 K, 7230 kPa	0.05306
350 K, 7408.1 kPa	0.05532
350 K, 7592 kPa	0.05755
350 K, 7767.3 kPa	0.05957
350 K, 8006.2 kPa	0.06218
350 K, 8297.4 kPa	0.06505
350 K, 8558.7 kPa	0.06754
350 K, 8849.5 kPa	0.07028
350 K, 9294 kPa	0.07399
350 K, 9823.4 kPa	0.07814
350 K, 10614 kPa	0.08354
350 K, 11424 kPa	0.08869
350 K, 12301 kPa	0.09386
375 K, 72.56 kPa	0.01862
375 K, 103.02 kPa	0.01864
375 K, 132.08 kPa	0.01864
375 K, 156.74 kPa	0.01865
375 K, 183.32 kPa	0.01866
375 K, 219.98 kPa	0.01868
375 K, 258.3 kPa	0.01869
375 K, 282.8 kPa	0.0187
375 K, 308.36 kPa	0.01871
375 K, 342.15 kPa	0.01871
375 K, 371.36 kPa	0.01872
375 K, 403.52 kPa	0.01873
375 K, 435.36 kPa	0.01874
375 K, 464.82 kPa	0.01875
375 K, 499.73 kPa	0.01876
375 K, 539.14 kPa	0.01878
375 K, 563.93 kPa	0.01878
375 K, 612.98 kPa	0.0188
375 K, 661.4 kPa	0.01882
375 K, 695.12 kPa	0.01884
375 K, 746.7 kPa	0.01886
375 K, 805.08 kPa	0.01888
375 K, 855.26 kPa	0.0189
375 K, 917.96 kPa	0.01894
375 K, 999.57 kPa	0.01897
375 K, 1067.6 kPa	0.01901
375 K, 1146.8 kPa	0.01905
375 K, 1211.3 kPa	0.01909
375 K, 1302.5 kPa	0.01914
375 K, 1385 kPa	0.01919
375 K, 1460.9 kPa	0.01924
375 K, 1534.4 kPa	0.01928
375 K, 1588.3 kPa	0.01932
375 K, 1723.3 kPa	0.01941
375 K, 1809.5 kPa	0.01948
375 K, 1885.1 kPa	0.01954
375 K, 1966.6 kPa	0.01959
375 K, 2043 kPa	0.01966
375 K, 2300.6 kPa	0.0199
375 K, 2399.3 kPa	0.01998
375 K, 2484.3 kPa	0.02006
375 K, 2587.3 kPa	0.02019
375 K, 2879.2 kPa	0.02051
375 K, 3052.5 kPa	0.02072
375 K, 3214.1 kPa	0.02095
375 K, 3418.4 kPa	0.02122
375 K, 3699.7 kPa	0.02167
375 K, 3960.7 kPa	0.02214
375 K, 4136.6 kPa	0.02249
375 K, 4384.3 kPa	0.02299
375 K, 4599 kPa	0.02348
375 K, 4821 kPa	0.02401
375 K, 5057 kPa	0.02467
375 K, 5280.9 kPa	0.02535
375 K, 5535.4 kPa	0.02617
375 K, 5778.6 kPa	0.02706
375 K, 6000.4 kPa	0.02791
375 K, 6326.2 kPa	0.02939
375 K, 6677.7 kPa	0.03112
375 K, 6887.6 kPa	0.03224
375 K, 7092.9 kPa	0.03343
375 K, 7293.5 kPa	0.03466
375 K, 7524.4 kPa	0.03612
375 K, 7762.9 kPa	0.0377
375 K, 7973.1 kPa	0.03919
375 K, 8202 kPa	0.04079
375 K, 8452.7 kPa	0.04259
375 K, 8711.3 kPa	0.04448
375 K, 8972.9 kPa	0.04632
375 K, 9257.7 kPa	0.04836
375 K, 9573.7 kPa	0.05065
375 K, 9868.9 kPa	0.05275
375 K, 10221 kPa	0.05519
375 K, 10547 kPa	0.05738
